Test results from the kinase profiling compilation of Christmann-Franck et al. (2016).

Key:
Test in all cases: Caliper, Mobility shift assay off-chip
PAK1 (human) = PAK1 (human) (UniProt Q13153)
CDK4 (human) = CDK4 (human) (UniProt P11802)
GSG2 (human) = GSG2 (human) (UniProt Q8TF76)
ROCK1 (human) = ROCK1 (human) (UniProt Q13464)
RPS6KA2 KD1 KD2 (human) = RPS6KA2 KD1 KD2 (human) (UniProt Q15349)
GSK3A (human) = GSK3A (human) (UniProt P49840)
HIPK4 (human) = HIPK4 (human) (UniProt Q8NE63)
TSSK3 (human) = TSSK3 (human) (UniProt Q96PN8)
PBK (human) = PBK (human) (UniProt Q96KB5)
FGR (human) = FGR (human) (UniProt P09769)
MKNK1 (human) = MKNK1 (human) (UniProt Q9BUB5)
CHUK (human) = CHUK (human) (UniProt O15111)
STK4 (human) = STK4 (human) (UniProt Q13043)
LTK (human) = LTK (human) (UniProt P29376)
CAMK2D (human) = CAMK2D (human) (UniProt Q13557)
EPHB2 (human) = EPHB2 (human) (UniProt P29323)
PAK4 (human) = PAK4 (human) (UniProt O96013)
INSRR (human) = INSRR (human) (UniProt P14616)
NEK7 (human) = NEK7 (human) (UniProt Q8TDX7)
AURKA (human) = AURKA (human) (UniProt O14965)
NEK6 (human) = NEK6 (human) (UniProt Q9HC98)
KDR (human) = KDR (human) (UniProt P35968)
AKT3 (human) = AKT3 (human) (UniProt Q9Y243)
PRKCH (human) = PRKCH (human) (UniProt P24723)
PGK1 (human) = PGK1 (human) (UniProt P00558)
CDK7 (human) = CDK7 (human) (UniProt P50613)
AKT2 (human) = AKT2 (human) (UniProt P31751)
FRK (human) = FRK (human) (UniProt P42685)
CAMK1D (human) = CAMK1D (human) (UniProt Q8IU85)
AKT1 (human) = AKT1 (human) (UniProt P31749)
NIM1 (human) = NIM1 (human) (UniProt Q8IY84)
TNIK (human) = TNIK (human) (UniProt Q9UKE5)
EPHA2 (human) = EPHA2 (human) (UniProt P29317)
EPHA7 (human) = EPHA7 (human) (UniProt Q15375)
JAK1 JH1 JH2 (human) = JAK1 JH1 JH2 (human) (UniProt P23458)
Sequence of JAK1 JH1 JH2 (human) (P23458 whole entry, looked up): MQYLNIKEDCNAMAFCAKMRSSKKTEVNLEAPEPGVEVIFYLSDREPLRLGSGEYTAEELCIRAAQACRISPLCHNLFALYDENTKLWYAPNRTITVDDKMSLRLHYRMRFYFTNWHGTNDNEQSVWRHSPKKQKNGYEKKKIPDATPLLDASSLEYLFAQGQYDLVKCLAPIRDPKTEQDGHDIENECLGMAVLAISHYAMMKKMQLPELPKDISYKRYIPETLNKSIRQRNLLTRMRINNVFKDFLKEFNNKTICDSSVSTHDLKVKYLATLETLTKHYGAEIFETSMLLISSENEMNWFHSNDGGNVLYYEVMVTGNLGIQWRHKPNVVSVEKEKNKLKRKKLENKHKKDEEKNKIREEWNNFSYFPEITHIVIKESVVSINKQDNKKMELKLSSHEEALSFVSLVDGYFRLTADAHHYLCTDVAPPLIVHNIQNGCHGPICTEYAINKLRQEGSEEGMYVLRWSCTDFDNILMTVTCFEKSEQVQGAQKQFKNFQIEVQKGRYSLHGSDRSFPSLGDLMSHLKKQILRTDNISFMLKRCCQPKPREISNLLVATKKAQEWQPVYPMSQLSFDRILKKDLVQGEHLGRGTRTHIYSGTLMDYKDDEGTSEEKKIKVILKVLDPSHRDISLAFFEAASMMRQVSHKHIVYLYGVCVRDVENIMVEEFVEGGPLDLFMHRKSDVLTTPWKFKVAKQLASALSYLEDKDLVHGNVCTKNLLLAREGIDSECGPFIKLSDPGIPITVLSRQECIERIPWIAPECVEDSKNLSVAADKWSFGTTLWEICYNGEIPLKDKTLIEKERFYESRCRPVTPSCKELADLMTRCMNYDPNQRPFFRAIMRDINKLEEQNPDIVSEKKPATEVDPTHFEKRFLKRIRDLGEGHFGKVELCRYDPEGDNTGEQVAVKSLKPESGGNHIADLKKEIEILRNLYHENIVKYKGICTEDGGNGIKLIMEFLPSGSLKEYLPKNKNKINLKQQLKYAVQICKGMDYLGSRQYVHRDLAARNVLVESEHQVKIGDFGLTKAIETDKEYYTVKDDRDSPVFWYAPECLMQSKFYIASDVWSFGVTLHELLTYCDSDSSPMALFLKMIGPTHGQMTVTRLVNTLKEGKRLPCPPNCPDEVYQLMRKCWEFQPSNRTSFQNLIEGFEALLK

Sequence of EPHA2 (human) (P29317 whole entry, looked up): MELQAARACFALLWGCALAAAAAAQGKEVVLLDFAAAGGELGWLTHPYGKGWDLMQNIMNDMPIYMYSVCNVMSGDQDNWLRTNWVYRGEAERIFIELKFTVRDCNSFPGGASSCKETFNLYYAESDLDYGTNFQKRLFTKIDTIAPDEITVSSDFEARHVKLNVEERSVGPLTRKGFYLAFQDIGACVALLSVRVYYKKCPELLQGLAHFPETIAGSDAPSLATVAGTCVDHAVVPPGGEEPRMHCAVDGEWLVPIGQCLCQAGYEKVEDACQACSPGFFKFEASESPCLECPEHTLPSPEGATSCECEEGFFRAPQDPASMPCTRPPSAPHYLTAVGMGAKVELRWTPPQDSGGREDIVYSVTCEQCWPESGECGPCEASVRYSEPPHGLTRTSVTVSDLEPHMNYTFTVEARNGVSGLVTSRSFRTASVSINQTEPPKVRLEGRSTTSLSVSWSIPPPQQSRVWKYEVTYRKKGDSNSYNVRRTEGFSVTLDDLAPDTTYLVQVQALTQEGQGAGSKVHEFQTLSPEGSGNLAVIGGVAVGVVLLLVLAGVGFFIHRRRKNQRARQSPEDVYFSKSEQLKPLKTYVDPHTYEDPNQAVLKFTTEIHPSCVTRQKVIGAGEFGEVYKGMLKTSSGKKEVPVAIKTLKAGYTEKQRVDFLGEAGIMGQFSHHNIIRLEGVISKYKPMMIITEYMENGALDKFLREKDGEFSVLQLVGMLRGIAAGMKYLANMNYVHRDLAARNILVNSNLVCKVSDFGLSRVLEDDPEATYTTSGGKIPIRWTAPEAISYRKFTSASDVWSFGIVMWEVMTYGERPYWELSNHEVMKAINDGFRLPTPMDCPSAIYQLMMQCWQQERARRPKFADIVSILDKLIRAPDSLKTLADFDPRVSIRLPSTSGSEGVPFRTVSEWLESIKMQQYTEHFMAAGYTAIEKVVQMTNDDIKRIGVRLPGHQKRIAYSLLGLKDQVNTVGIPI
Sequence of EPHB2 (human) (P29323 whole entry, looked up): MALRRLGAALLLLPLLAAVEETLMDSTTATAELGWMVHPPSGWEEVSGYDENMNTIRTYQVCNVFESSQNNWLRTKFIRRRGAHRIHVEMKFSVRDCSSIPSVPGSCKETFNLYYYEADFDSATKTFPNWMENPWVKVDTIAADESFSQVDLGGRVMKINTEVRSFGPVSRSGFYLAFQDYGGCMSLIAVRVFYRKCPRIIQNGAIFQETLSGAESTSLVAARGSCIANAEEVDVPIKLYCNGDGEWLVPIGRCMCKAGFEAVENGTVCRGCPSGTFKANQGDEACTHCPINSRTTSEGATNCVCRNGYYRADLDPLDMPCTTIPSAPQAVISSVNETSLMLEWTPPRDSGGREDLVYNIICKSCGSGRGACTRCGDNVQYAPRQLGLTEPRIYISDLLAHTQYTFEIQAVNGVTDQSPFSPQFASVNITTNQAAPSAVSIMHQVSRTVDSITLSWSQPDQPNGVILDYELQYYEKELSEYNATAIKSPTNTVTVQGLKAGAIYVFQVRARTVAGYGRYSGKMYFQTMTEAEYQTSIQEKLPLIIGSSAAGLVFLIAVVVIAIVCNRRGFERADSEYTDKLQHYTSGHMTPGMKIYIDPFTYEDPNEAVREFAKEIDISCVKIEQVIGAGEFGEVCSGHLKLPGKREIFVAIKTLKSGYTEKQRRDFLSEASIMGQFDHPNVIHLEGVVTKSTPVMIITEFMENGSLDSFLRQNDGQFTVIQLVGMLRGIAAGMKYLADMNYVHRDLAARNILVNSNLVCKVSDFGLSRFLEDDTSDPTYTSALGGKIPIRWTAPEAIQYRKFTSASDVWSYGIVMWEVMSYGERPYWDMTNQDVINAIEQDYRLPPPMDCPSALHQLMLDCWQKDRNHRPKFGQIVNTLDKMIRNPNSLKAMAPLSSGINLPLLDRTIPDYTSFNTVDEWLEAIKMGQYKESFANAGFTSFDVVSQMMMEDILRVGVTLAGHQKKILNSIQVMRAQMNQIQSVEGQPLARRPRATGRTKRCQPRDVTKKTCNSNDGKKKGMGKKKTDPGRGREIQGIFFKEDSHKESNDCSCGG
Sequence of PAK1 (human) (Q13153 whole entry, looked up): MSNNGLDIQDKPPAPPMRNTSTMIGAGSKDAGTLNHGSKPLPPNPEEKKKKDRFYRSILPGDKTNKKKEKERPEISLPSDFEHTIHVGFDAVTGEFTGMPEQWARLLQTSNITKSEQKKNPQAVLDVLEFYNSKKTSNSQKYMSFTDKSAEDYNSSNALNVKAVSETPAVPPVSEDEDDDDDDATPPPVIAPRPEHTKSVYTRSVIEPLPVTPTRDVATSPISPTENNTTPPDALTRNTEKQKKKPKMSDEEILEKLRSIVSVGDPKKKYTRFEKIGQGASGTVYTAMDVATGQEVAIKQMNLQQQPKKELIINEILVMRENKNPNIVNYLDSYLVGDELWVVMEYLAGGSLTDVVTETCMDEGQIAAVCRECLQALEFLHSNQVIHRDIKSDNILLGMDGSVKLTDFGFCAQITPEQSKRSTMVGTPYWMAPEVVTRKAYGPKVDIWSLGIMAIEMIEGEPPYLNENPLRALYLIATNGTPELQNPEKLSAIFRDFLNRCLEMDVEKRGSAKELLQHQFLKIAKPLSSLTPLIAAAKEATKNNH
Sequence of RPS6KA2 KD1 KD2 (human) (Q15349 whole entry, looked up): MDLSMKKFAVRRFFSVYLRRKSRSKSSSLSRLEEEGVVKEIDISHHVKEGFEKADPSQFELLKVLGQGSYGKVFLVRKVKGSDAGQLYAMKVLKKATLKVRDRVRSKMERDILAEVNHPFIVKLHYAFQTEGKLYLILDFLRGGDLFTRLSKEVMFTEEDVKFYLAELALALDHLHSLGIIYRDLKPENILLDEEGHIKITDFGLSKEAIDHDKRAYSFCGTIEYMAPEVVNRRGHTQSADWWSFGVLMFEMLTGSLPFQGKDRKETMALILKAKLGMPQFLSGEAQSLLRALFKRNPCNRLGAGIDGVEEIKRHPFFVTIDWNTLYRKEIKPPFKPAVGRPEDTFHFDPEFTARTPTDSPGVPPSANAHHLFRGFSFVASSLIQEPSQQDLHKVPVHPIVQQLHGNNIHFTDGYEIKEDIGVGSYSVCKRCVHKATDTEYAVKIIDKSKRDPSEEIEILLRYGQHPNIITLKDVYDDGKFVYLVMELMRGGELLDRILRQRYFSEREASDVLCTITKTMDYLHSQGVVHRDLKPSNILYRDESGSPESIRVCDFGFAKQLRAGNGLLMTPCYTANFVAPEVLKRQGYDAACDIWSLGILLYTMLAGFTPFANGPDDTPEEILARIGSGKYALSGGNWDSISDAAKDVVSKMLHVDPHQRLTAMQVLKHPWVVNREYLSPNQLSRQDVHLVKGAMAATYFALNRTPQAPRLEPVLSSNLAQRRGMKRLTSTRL
Sequence of STK4 (human) (Q13043 whole entry, looked up): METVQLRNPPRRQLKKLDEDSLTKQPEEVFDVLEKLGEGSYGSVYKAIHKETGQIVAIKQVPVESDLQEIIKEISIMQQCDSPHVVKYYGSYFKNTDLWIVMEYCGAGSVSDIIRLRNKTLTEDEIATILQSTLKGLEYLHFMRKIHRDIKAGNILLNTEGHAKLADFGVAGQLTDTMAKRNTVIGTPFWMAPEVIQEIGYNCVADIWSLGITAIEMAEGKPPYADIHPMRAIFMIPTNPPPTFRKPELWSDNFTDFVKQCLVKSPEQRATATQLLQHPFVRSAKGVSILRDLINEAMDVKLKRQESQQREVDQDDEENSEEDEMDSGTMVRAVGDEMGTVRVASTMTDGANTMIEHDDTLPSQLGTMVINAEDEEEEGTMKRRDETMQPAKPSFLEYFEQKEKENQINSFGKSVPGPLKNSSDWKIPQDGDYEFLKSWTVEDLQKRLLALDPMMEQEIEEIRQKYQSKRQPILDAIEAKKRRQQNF

Cc1ccc(Nc2nccc(N(C)c3ccc4c(C)n(C)nc4c3)n2)cc1S(N)(=O)=O
inhibition (PAK1 (human); compound 0.02 µM): -3.6%
inhibition (PAK1 (human); compound 0.2 µM): 1%
inhibition (CDK4 (human); compound 0.2 µM): 13.2%
inhibition (GSG2 (human); compound 0.02 µM): -1.1%
inhibition (GSG2 (human); compound 0.2 µM): 4.3%
inhibition (ROCK1 (human); compound 0.02 µM): 1.7%
inhibition (ROCK1 (human); compound 0.2 µM): 4.4%
inhibition (RPS6KA2 KD1 KD2 (human); compound 0.02 µM): 6.3%
inhibition (RPS6KA2 KD1 KD2 (human); compound 0.2 µM): 8.4%
inhibition (GSK3A (human); compound 0.02 µM): 1.8%
inhibition (GSK3A (human); compound 0.2 µM): 5.1%
inhibition (HIPK4 (human); compound 0.02 µM): 6.8%
inhibition (HIPK4 (human); compound 0.2 µM): 12.3%
inhibition (TSSK3 (human); compound 0.02 µM): 2.2%
inhibition (TSSK3 (human); compound 0.2 µM): 6.7%
inhibition (PBK (human); compound 0.02 µM): -3.9%
inhibition (PBK (human); compound 0.2 µM): -9.3%
inhibition (FGR (human); compound 0.02 µM): 18.8%
inhibition (FGR (human); compound 0.2 µM): 54.2%
inhibition (MKNK1 (human); compound 0.02 µM): 6.1%
inhibition (MKNK1 (human); compound 0.2 µM): 3.1%
inhibition (CHUK (human); compound 0.02 µM): -1.2%
inhibition (CHUK (human); compound 0.2 µM): 0.9%
inhibition (STK4 (human); compound 0.02 µM): -4.7%
inhibition (STK4 (human); compound 0.2 µM): -5.1%
inhibition (LTK (human); compound 0.02 µM): 5.1%
inhibition (LTK (human); compound 0.2 µM): 11.9%
inhibition (CAMK2D (human); compound 0.02 µM): 4.9%
inhibition (CAMK2D (human); compound 0.2 µM): 4.6%
inhibition (EPHB2 (human); compound 0.02 µM): -1.3%
inhibition (EPHB2 (human); compound 0.2 µM): -2.7%
inhibition (PAK4 (human); compound 0.02 µM): 0.9%
inhibition (PAK4 (human); compound 0.2 µM): 8%
inhibition (INSRR (human); compound 0.02 µM): 0.1%
inhibition (INSRR (human); compound 0.2 µM): 0.3%
inhibition (NEK7 (human); compound 0.02 µM): -2.9%
inhibition (NEK7 (human); compound 0.2 µM): 0%
inhibition (AURKA (human); compound 0.02 µM): 11.5%
inhibition (AURKA (human); compound 0.2 µM): 40.7%
inhibition (NEK6 (human); compound 0.02 µM): -4.8%
inhibition (NEK6 (human); compound 0.2 µM): -1.2%
inhibition (KDR (human); compound 0.02 µM): 81.6%
inhibition (KDR (human); compound 0.2 µM): 99.2%
inhibition (AKT3 (human); compound 0.02 µM): -3.2%
inhibition (AKT3 (human); compound 0.2 µM): -2.6%
inhibition (PRKCH (human); compound 0.02 µM): 6.7%
inhibition (PRKCH (human); compound 0.2 µM): 4.3%
inhibition (PGK1 (human); compound 0.02 µM): -5.4%
inhibition (PGK1 (human); compound 0.2 µM): -2.2%
inhibition (CDK7 (human); compound 0.02 µM): -1.6%
inhibition (CDK7 (human); compound 0.2 µM): -2.2%
inhibition (AKT2 (human); compound 0.02 µM): 4.7%
inhibition (AKT2 (human); compound 0.2 µM): 3%
inhibition (FRK (human); compound 0.02 µM): 10.3%
inhibition (FRK (human); compound 0.2 µM): 47.3%
inhibition (CAMK1D (human); compound 0.02 µM): -0.2%
inhibition (CAMK1D (human); compound 0.2 µM): 2.9%
inhibition (AKT1 (human); compound 0.02 µM): -2.3%
inhibition (AKT1 (human); compound 0.2 µM): -2.2%
inhibition (NIM1 (human); compound 0.02 µM): -11.7%
inhibition (NIM1 (human); compound 0.2 µM): 10.4%
inhibition (TNIK (human); compound 0.02 µM): 7.3%
inhibition (TNIK (human); compound 0.2 µM): 46.6%
inhibition (EPHA2 (human); compound 0.02 µM): -5%
inhibition (EPHA2 (human); compound 0.2 µM): -2.8%
inhibition (EPHA7 (human); compound 0.02 µM): 0.1%
inhibition (EPHA7 (human); compound 0.2 µM): 1.7%
inhibition (JAK1 JH1 JH2 (human); compound 0.02 µM): -2.2%
inhibition (JAK1 JH1 JH2 (human); compound 0.2 µM): 0.8%

CNC(=O)c1ccccc1Sc1ccc2c(/C=C/c3ccccn3)n[nH]c2c1
inhibition (PAK1 (human); compound 0.001 µM): -1.5%
inhibition (PAK1 (human); compound 0.02 µM): -1.5%
inhibition (CDK4 (human); compound 0.001 µM): -2.2%
inhibition (CDK4 (human); compound 0.02 µM): 2.9%
inhibition (GSG2 (human); compound 0.001 µM): -2.8%
inhibition (GSG2 (human); compound 0.02 µM): -0.9%
inhibition (ROCK1 (human); compound 0.001 µM): 5.8%
inhibition (ROCK1 (human); compound 0.02 µM): 0.7%
inhibition (RPS6KA2 KD1 KD2 (human); compound 0.001 µM): -0.7%
inhibition (RPS6KA2 KD1 KD2 (human); compound 0.02 µM): 6%
inhibition (GSK3A (human); compound 0.001 µM): 2.4%
inhibition (GSK3A (human); compound 0.02 µM): 0.2%
inhibition (HIPK4 (human); compound 0.001 µM): -3.1%
inhibition (HIPK4 (human); compound 0.02 µM): 1.9%
inhibition (TSSK3 (human); compound 0.001 µM): -1.6%
inhibition (TSSK3 (human); compound 0.02 µM): 0%
inhibition (PBK (human); compound 0.001 µM): -7.6%
inhibition (PBK (human); compound 0.02 µM): -7.4%
inhibition (FGR (human); compound 0.001 µM): 8.2%
inhibition (FGR (human); compound 0.02 µM): 25%
inhibition (MKNK1 (human); compound 0.001 µM): -6.1%
inhibition (MKNK1 (human); compound 0.02 µM): 4.1%
inhibition (CHUK (human); compound 0.001 µM): -2.6%
inhibition (CHUK (human); compound 0.02 µM): 2.6%
inhibition (STK4 (human); compound 0.001 µM): -5.9%
inhibition (STK4 (human); compound 0.02 µM): 2%
inhibition (LTK (human); compound 0.001 µM): 2.1%
inhibition (LTK (human); compound 0.02 µM): 0.9%
inhibition (CAMK2D (human); compound 0.001 µM): 3%
inhibition (CAMK2D (human); compound 0.02 µM): 2.4%
inhibition (EPHB2 (human); compound 0.001 µM): -6.4%
inhibition (EPHB2 (human); compound 0.02 µM): -5.2%
inhibition (PAK4 (human); compound 0.001 µM): 3.3%
inhibition (PAK4 (human); compound 0.02 µM): 0.8%
inhibition (INSRR (human); compound 0.001 µM): -5.2%
inhibition (INSRR (human); compound 0.02 µM): -8.3%
inhibition (NEK7 (human); compound 0.001 µM): -3.9%
inhibition (NEK7 (human); compound 0.02 µM): -4.1%
inhibition (AURKA (human); compound 0.001 µM): 13.3%
inhibition (AURKA (human); compound 0.02 µM): 54.5%
inhibition (NEK6 (human); compound 0.001 µM): -7.6%
inhibition (NEK6 (human); compound 0.02 µM): -5.8%
inhibition (KDR (human); compound 0.001 µM): 47.3%
inhibition (KDR (human); compound 0.02 µM): 97.4%
inhibition (AKT3 (human); compound 0.001 µM): -5.4%
inhibition (AKT3 (human); compound 0.02 µM): -5.5%
inhibition (PRKCH (human); compound 0.001 µM): 4.5%
inhibition (PRKCH (human); compound 0.02 µM): 6.2%
inhibition (PGK1 (human); compound 0.001 µM): -3.7%
inhibition (PGK1 (human); compound 0.02 µM): -5.3%
inhibition (CDK7 (human); compound 0.001 µM): -7.5%
inhibition (CDK7 (human); compound 0.02 µM): -3.4%
inhibition (AKT2 (human); compound 0.001 µM): 0.8%
inhibition (AKT2 (human); compound 0.02 µM): -4.1%
inhibition (FRK (human); compound 0.001 µM): 6.1%
inhibition (FRK (human); compound 0.02 µM): 4.2%
inhibition (CAMK1D (human); compound 0.001 µM): -0.4%
inhibition (CAMK1D (human); compound 0.02 µM): -0.8%
inhibition (AKT1 (human); compound 0.001 µM): -4.4%
inhibition (AKT1 (human); compound 0.02 µM): -4.8%
inhibition (NIM1 (human); compound 0.001 µM): 13.8%
inhibition (NIM1 (human); compound 0.02 µM): -10.4%
inhibition (TNIK (human); compound 0.001 µM): -6%
inhibition (TNIK (human); compound 0.02 µM): 1.4%
inhibition (EPHA2 (human); compound 0.001 µM): -8.3%
inhibition (EPHA2 (human); compound 0.02 µM): -6.2%
inhibition (EPHA7 (human); compound 0.001 µM): -3.2%
inhibition (EPHA7 (human); compound 0.02 µM): -0.8%
inhibition (JAK1 JH1 JH2 (human); compound 0.001 µM): -7.4%
inhibition (JAK1 JH1 JH2 (human); compound 0.02 µM): -3.3%
